Data as given in patent US20210322412A1, “METHODS AND COMPOSITIONS FOR TREATING A CORONAVIRUS INFECTION” (priority 2020, published 2021).

Key:
human CCR2 receptors = human CCR2 receptors (Homo sapiens, UniProt P41597); assay: CCR2 inhibitory activity; assay type: binding; details: Receptor CCR2
Experimental: (§1) The CCR2 and CCR5 inhibitory activity of (4-((3R,4R)-3-methoxytetrahydro-pyran-4-ylamino)piperidin-1-yl)(5-methyl-6-(((2R,6S)-6-(p-tolyl)tetrahydro-2H-pyran-2-yl)methylamino)pyrimidin-4-yl)methanone citrate was evaluated against human CCR2 receptors and human CCR5 receptors.

human CCR5 receptors = human CCR5 receptors (Homo sapiens, UniProt P51681); assay: CCR5 inhibitory activity; assay type: binding; details: Receptor CCR5
Chain of human CCR5 receptors (P51681 whole entry): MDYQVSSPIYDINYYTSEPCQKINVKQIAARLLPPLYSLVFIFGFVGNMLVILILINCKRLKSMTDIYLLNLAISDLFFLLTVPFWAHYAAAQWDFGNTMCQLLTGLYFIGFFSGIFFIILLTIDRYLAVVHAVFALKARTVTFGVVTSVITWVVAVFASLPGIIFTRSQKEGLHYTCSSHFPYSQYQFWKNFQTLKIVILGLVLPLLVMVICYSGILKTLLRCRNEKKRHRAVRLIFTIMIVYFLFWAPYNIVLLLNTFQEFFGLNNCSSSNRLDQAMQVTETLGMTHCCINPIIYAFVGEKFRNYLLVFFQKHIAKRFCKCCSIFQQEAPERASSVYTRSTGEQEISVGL
Experimental: as §1

[1] = Sorption behavior (dynamic vapour sorption isotherms); assay type: physicochemical
Experimental: Sorption isotherms were generated using an IGAsorp water sorption monitor from Hiden Isochema. Adsorption and desorption isotherms were obtained at 25° C. with 10% r.h. step intervals ranging from 10% r.h. to 90% r.h.
For BR salt form only: Sorption isotherms were registered on a DVS-1 water sorption monitor from Surface Measurement Systems.

Chain of human CCR2 receptors (P41597 whole entry): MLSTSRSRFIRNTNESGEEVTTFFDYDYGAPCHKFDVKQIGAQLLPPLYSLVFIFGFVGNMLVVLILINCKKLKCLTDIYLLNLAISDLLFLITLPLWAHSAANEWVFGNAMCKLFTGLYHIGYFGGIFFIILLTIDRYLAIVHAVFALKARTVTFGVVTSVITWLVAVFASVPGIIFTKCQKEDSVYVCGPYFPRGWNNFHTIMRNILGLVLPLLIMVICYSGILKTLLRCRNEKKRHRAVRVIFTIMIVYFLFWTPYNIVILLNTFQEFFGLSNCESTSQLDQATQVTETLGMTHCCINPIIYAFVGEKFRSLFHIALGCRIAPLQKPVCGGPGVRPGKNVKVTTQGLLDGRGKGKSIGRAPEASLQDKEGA

For `CO[C@H]1COCC[C@H]1NC1CCN(C(=O)c2ncnc(NC[C@H]3CCC[C@@H](c4ccc(C)cc4)O3)c2C)CC1.O=C(O)CC(O)(CC(=O)O)C(=O)O` [Compound 1, (4-((3R,4R)-3-Methoxytetrahydro-pyran-4-ylamino)piperidin-1-yl)(5-methyl-6-(((2R,6S)-6-(p-tolyl)tetrahydro-2H-pyran-2-yl)methylamino)pyrimidin-4-yl)methanone citrate], the IC50 (human CCR2 receptors) was 50 nM, the Ki (human CCR2 receptors) was 4.2 nM and the IC50 (human CCR5 receptors) was 88 nM. For the same compound, the Ki (human CCR5 receptors) was 75 nM, the “state of the compound after the sorption experiment” value ([1]; after the sorption experiment) was “still remains as solid material” and the “stability against relative humidity” value ([1]; relative humidity, 25° C.) was “up to 80%”. For the same compound, the uptake of water ([1]; sorption experiment, relative humidity up to 80%, uptake reversible) was 2.6%.
